Columns and labels:
SW403 cells [1] = test: SW403 cell viability, MTT assay; assay type: cell-based, human
Method: (§1) Cells were seeded in 12- or 96-well plates in complete medium 24 hrs before treatment and then incubated for 24 hrs (single treatment) or 72 hrs (multiple treatments) with different drug concentrations in media without serum. Cell viability was then evaluated.
Alternatively, cell viability was assessed measuring mitochondrial functionality by the MIT assay, which is based on the reduction of the soluble tetrazolium salt MTT [(3-(4,5-dimethylthiazol-2-yl)-2,5-diphenyltetrazolium bromide] into insoluble formazan by mitochondria. Briefly, after treatment, cells were washed with PBS and incubated with 0.5 mg/ml, MTT for 2 hrs at room temperature, MTT reduction was quantified by absorbance at 570 nm using a UV-visible plate reader.

[2] = target: rat acid ceramidase (rAC) (Rattus norvegicus (Rat), UniProt Q6P7S1); test: Rat acid ceramidase (rAC) enzymatic assay, LC/MS of lauric acid; assay type: biochemical; conditions: rat acid ceramidase, 100 μM N-lauroyl ceramide, pH 4.5
Method: A lysosomal rat acid ceramidase (rAC) protein preparation was obtained from cells stably expressing rAC resuspended in 20 mM Tris HCl (pH 7.5) with 0.32 M sucrose. Samples were sonicated and centrifuged at 800×g for 15 min at 4° C. Supernatants were then centrifuged at 12,000×g for 30 min at 4° C. Pellets were re-suspended in PBS pH 7.4 and subjected to 2 freeze-thaw cycles at −80° C. The suspension was finally centrifuged at 105,000×g for 1 hr at 4° C. and the supernatant containing rAC was then used in the enzymatic assay.
r-AC protein samples were pre-incubated with various concentrations of test compounds or vehicle control in 100 mM NaH2PO4/citrate buffer pH 4.5, 0.1% Nonidet P-40, 3 mM DTT for 30 min at 37° C. Samples were incubated with 100 μM N-lauroyl ceramide (Nu-Chek Prep, Elysian, Minn.) at 37° for 30 min. The reaction was stopped by addition of a mixture of chloroform/methanol (2:1 vol/vol) containing 1 nmol of heptadecanoic acid (HDA; NuChek Prep). The organic phases were collected, dried under nitrogen, and analyzed by LC/MS in the negative-ion mode using heptadecanoic acid (HDA) as internal standard (m/z=199 for lauric acid, m/z=269 for HDA). HDA was eluted on an XDB Eclipse C18 column isocratically at 2.2 mL/min for 1 min with a solvent mixture of 95% methanol and 5% water, both containing 0.25% acetic acid, and 5 mM ammonium acetate. The column temperature was 50° C. Electrospray ionization (ESI) was in the negative mode, capillary voltage was 4 kV, and fragmentor voltage was 100 V. Nitrogen was used as drying gas at a flow rate of 13 L/min and at a temperature of 350° C. Nebulizer pressure was set at 60 psi. We monitored [M-H]− in the selected-ion monitoring (SIM) mode using HDA as internal standard.
Inhibition of rAC activity was calculated as a reduction of lauric acid in the samples compared to vehicle controls. Median inhibitory concentration (IC50) values were calculated by non-linear regression analysis of log [concentration]/inhibition curves using. GraphPad Prism 5 (GraphPad Software, Inc., CA, USA) applying a standard slope curve fitting.

[3] = tested on: human colon adenocarcinoma cell line SW403; test: Ceramide levels in SW403 cells (lipid extraction, LC/MS); assay type: cell-based; conditions: 3 μM, 3 hrs, vs. vehicle
Method: Lipids were extracted using a chloroform/methanol mixture (2:1 vol/vol, 3 mL) containing internal standards. The organic phases were collected, dried under nitrogen, and dissolved in methanol/chloroform (3:1 vol/vol) for LC/MS analyses.
Ceramides were analyzed by LC/MS^n, using a 1100-LC system (Agilent Technologies) equipped with an Ion Trap XCT and interfaced with ESI (Agilent Technologies). They were separated on a Poroshell 300 SB C18 column (2.1×75 mm i.d., 5 μm; Agilent Technologies) maintained at 30° C. A linear gradient of methanol in water containing 5 mM ammonium acetate and 0.25% acetic acid (from 80% to 100% of methanol in 3 man) was applied at a flow rate of 1 mL/min. […]
Tissue-derived ceramides were identified by comparison of their LC retention times and MS^n fragmentation patterns with those of authentic standards (Avanti Polar Lipids). Extracted ion chromatograms were used to quantify myristoyl ceramide (C140, m/z 510.5>492.5>264.3), palmitoyl ceramide (C16:0, m/z 538.5>520.3>264.3), stearoyl ceramide (C18:0 m/z 566.5>548.3>264.3), lignoceroylceramide (C24:0 m/z 650.5>632.3>264.3), nervonoylceramide (C24:1 m/z 648.5>630.3>264.3) and using lauroyl ceramide standard (m/z 482.5>464.5>264.3). […]

SW403 cells [4] = test: SW403 cell viability, trypan blue assay; assay type: cell-based, human; conditions: prolonged (72 hrs) treatment, concentration-response, FIGS. 2A and 2B
Method: as §1
The trypan blue exclusion assay is based on the principle that viable cells have intact cell membrane and can therefore exclude the trypan blue dye. Cell viability was measured after 24 hrs incubation with the drug. Cells were harvested, centrifuged at 1200 rpm for 10 min and pellets re-suspended in PBS. To evaluate viability, cells were diluted 1:1 with 0.4% trypan blue dye (Sigma), incubated for 1 min and white (viable) cells were counted with a hemacytometer.

rat acid ceramidase (rAC), sequence (Q6P7S1 142-394): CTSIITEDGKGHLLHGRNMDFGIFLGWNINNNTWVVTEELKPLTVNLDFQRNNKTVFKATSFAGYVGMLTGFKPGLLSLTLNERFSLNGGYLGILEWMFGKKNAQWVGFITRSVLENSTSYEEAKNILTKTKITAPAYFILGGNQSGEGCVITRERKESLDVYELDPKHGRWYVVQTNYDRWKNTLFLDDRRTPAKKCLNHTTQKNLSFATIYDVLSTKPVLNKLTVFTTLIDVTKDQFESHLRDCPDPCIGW
rat acid ceramidase (rAC), sequence (Q6P7S1 21-141): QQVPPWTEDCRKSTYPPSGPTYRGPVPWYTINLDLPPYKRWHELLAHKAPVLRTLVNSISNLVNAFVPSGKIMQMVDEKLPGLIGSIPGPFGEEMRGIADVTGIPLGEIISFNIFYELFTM

Compound: CCCCCCNC(=O)n1cc(Br)c(=O)[nH]c1=O [Example 5, 5-bromo-N-hexyl-2,4-dioxo-pyrimidine-1-carboxamide]
- interaction with 5FU in reducing cell viability (MTT assay) (SW403 cells [1]; 72 hrs, compound 30 μM + 5FU 300 nM): synergistic effect
- SW403 cell viability (MTT assay) (SW403 cells [1]; sub-chronic treatment 72 hrs, compounds 30 μM, 5FU 300 nM): reduced cell viability
- IC50 [2]: 51 nM
- levels of C14:0, C16:0 and C18:0 ceramide [3]: increased
- SW403 cell viability (trypan blue assay) (SW403 cells [4]): reduction of the viability

— US9428465B2, “Acid ceramidase inhibitors and their use as medicaments” (FONDAZIONE ISTITUTO ITALIANO DI TECHNOLOGIA, priority 2012, dated 2016)
